Test results as given in patent publication US20260007681A1, “INDOLE DERIVATIVES AS ESTROGEN RECEPTOR DEGRADERS” (REGENTS OF THE UNIVERSITY OF MICHIGAN, priority 2022, published 2026).

These molecules were tested against ER (Homo sapiens (Human), UniProt P03372) (assay: Western blot analysis (Compounds B1-B278)). Details: ER degradation by traditional Western blot; DC50 classes.
Assay type: cell-based
Method in brief: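 Relative target-protein levels come from densitometry of immunoblots, normalized to GAPDH. Lysates from treated cells were prepared in RIPA buffer (pH 7.6) containing protease inhibitors, and equal protein amounts, checked by BCA, were separated on 10% gels and blotted onto PVDF.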

Sequence of ER (P03372 whole entry): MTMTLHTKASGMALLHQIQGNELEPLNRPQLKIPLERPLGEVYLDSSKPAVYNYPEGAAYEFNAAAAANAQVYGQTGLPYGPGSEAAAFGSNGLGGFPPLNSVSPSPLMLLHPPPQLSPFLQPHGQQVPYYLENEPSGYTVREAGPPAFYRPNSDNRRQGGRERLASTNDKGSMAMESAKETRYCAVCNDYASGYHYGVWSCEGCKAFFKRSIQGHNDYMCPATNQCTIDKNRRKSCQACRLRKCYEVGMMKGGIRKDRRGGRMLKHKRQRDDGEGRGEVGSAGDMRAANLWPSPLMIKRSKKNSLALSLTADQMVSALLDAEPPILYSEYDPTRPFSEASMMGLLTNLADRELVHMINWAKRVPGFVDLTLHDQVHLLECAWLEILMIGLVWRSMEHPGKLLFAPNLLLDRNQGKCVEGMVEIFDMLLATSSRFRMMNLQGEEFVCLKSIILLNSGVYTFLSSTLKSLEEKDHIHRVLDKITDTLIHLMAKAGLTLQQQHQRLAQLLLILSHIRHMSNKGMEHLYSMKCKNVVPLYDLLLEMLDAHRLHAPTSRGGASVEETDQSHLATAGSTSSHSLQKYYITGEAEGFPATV

SMILES	Traditional Western Degradation Potency
C[C@@H]1Cc2c([nH]c3ccccc23)[C@@H](c2cnc(N3CCC4(CCN(C(=O)CN5Cc6cc7c(cc6C5)C(=O)N(C5CCC(=O)NC5=O)C7=O)CC4)CC3)nc2)N1CC(F)(F)F (stereo partly drawn) [Compound B216, 2-(2,6-dioxopiperidin-3-yl)-6-(2-(9-(5-((1R,3R)-3-methyl-2-(2,2,2-trifluoroethyl)-2,3,4,9-tetrahydro-1H-pyrido[3,4-b]indol-1-yl)pyrimidin-2-yl)-3,9-diazaspiro[5.5]undecan-3-yl)-2-oxoethyl)-6,7-dihydropyrrolo[3,4-f]isoindole-1,3(2H,5H)-dione]	A (“A”: <10 nM)
C[C@@H]1Cc2c([nH]c3ccccc23)[C@@H](c2c(F)cc(C3=CCC4(CC3)CCN(C(=O)CN3Cc5cc6c(cc5C3)C(=O)N(C3CCC(=O)NC3=O)C6=O)CC4)cc2F)N1CC(F)F (stereo partly drawn) [Compound B240, 6-(2-(9-(4-((1R,3R)-2-(2,2-difluoroethyl)-3-methyl-2,3,4,9-tetrahydro-1H-pyrido[3,4-b]indol-1-yl)-3,5-difluorophenyl)-3-azaspiro[5.5]undec-8-en-3-yl)-2-oxoethyl)-2-(2,6-dioxopiperidin-3-yl)-6,7-dihydropyrrolo[3,4-f]isoindole-1,3(2H,5H)-dione]	B (“B”: 10-100 nM)
C[C@@H]1Cc2c([nH]c3ccccc23)[C@@H](c2c(F)cc(N3CCC(C(=O)N4CC(N5Cc6cc7c(cc6C5)C(=O)N(C5CCC(=O)NC5=O)C7=O)C4)CC3)cc2F)N1CC(F)F (stereo partly drawn) [Compound B208, 6-(1-(1-(4-((1R,3R)-2-(2,2-difluoroethyl)-3-methyl-2,3,4,9-tetrahydro-1H-pyrido[3,4-b]indol-1-yl)-3,5-difluorophenyl)piperidine-4-carbonyl)azetidin-3-yl)-2-(2,6-dioxopiperidin-3-yl)-6,7-dihydropyrrolo[3,4-f]isoindole-1,3(2H,5H)-dione]	C (“C”: >100 nM)
C[C@@H]1Cc2c([nH]c3ccccc23)[C@@H](c2c(F)cc(N3CCC(N4CC(CC(=O)N5Cc6cc7c(cc6C5)C(=O)N(C5CCC(=O)NC5=O)C7=O)C4)CC3)cc2F)N1CC(F)F (stereo partly drawn) [Compound B6, 6-(2-(1-(1-(4-((1R,3R)-2-(2,2-difluoroethyl)-3-methyl-2,3,4,9-tetrahydro-1H-pyrido[3,4-b]indol-1-yl)-3,5-difluorophenyl)piperidin-4-yl)azetidin-3-yl)acetyl)-2-(2,6-dioxopiperidin-3-yl)-6,7-dihydropyrrolo[3,4-f]isoindole-1,3(2H,5H)-dione]	C (“C”: >100 nM)

Results, then the molecule that gave them:

Traditional Western Degradation Potency	SMILES
B (“B”: 10-100 nM)	C[C@@H]1Cc2c([nH]c3ccccc23)[C@@H](c2c(F)cc(N3CCC(N4CC(CC(=O)N5Cc6cc7c(cc6C5)C(=O)N(C5CCC(=O)NC5=O)C7)C4)CC3)cc2F)N1CC(F)F (stereo partly drawn) [Compound B7, 3-(6-(2-(1-(1-(4-((1R,3R)-2-(2,2-difluoroethyl)-3-methyl-2,3,4,9-tetrahydro-1H-pyrido[3,4-b]indol-1-yl)-3,5-difluorophenyl)piperidin-4-yl)azetidin-3-yl)acetyl)-1-oxo-3,5,6,7-tetrahydropyrrolo[3,4-f]isoindol-2(1H)-yl)piperidine-2,6-dione]
A (“A”: <10 nM)	C[C@@H]1Cc2c([nH]c3ccccc23)[C@@H](c2c(F)cc(-c3ccc(C(=O)N4CCC(N5Cc6cc7c(cc6C5)C(=O)N(C5CCC(=O)NC5=O)C7=O)CC4)cc3)cc2F)N1CC(F)F (stereo partly drawn) [Compound B93, 6-(1-(4′-((1R,3R)-2-(2,2-difluoroethyl)-3-methyl-2,3,4,9-tetrahydro-1H-pyrido[3,4-b]indol-1-yl)-3′,5′-difluoro-[1,1′-biphenyl]-4-carbonyl)piperidin-4-yl)-2-(2,6-dioxopiperidin-3-yl)-6,7-dihydropyrrolo[3,4-f]isoindole-1,3(2H,5H)-dione]
